Test results reported in patent publication US11000033B2, “Ketone or oxime compound, and herbicide” (NISSAN CHEMICAL CORPORATION, priority 2014, dated 2021).

Experiments:
Setaria viridis = assay: Test Example 5: herbicidal effect by foliage application, plastic box (symbol G); format: in vivo; settings: 320 g/ha, 3 weeks after application
Summary of the method: (§1)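 Sowing in sterilized diluvial soil, 14 days' greenhouse growth at 25° C. to 30° C., then uniform small-sprayer foliar application of aqueous emulsion dilution; plants scored three weeks afterwards.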

wheat = assay: Test Example 5: effect on crop by foliage application, plastic box (symbol e); format: in vivo; settings: 320 g/ha, 3 weeks after application
Summary of the method: (§2)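 Crop and weed seeds sown in spots in sterilized diluvial soil in plastic boxes and covered with about 1.5 cm soil. Plants raised in a greenhouse at 25° C. to 30° C. for foliar application.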

Scirpus juncoides = assay: Test Example 1: herbicidal activity, application before weed generation in submerged conditions (symbol B); format: in vivo; settings: application herbicide amount 320 g/ha
Summary of the method: (§3)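 Paddy pre-emergence test. Formulated emulsion, water-diluted to a predetermined rate, is applied to floodwater on sowing day; rice transplanted at 2.5 leaves. Effect read at 3 weeks on a 0–5 herbicidal-ratio scale.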

Amaranthus retroflexus = assay: Test Example 4: herbicidal effect by soil treatment (symbol N); format: in vivo; settings: for N: Amaranthus retroflexus, herbicidal effect grade: 320 g/ha; for Herbicidal effect grade, N: Amaranthus retroflexus: application herbicide amount 320 g/ha
Summary of the method: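 Seeds were sown in sterilized diluvial soil, covered with about 1.5 cm of soil, and the soil surface was sprayed with a water-diluted emulsion of the compound at a predetermined rate. Plants grew in a greenhouse at 25° C. to 30° C.; effects were scored visually 3 weeks after application.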

rapeseed [1] = assay: Test Example 5: effect on crop by foliage application, plastic box (symbol g); format: in vivo; settings: 320 g/ha, 3 weeks after application
Summary of the method: as §2

Apera spica-venti = assay: Test Example 5: herbicidal effect by foliage application, plastic box (symbol L); format: in vivo; settings: 320 g/ha, 3 weeks after application
Summary of the method: as §1

corn = assay: Test Example 4: effect on crop by soil treatment (symbol c); format: in vivo; settings: for c: corn, effect grade on crop: 320 g/ha; for Effect on crop grade, c: corn: application herbicide amount 320 g/ha
Summary of the method: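 The test used sterilized diluvial soil. Seed was set down in spots and overlaid with about 1.5 cm of soil before growth in a greenhouse kept at 25° C. to 30° C.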

beet [2] = assay: Test Example 4: effect on crop by soil treatment (symbol f); format: in vivo; settings: for f: beet, effect grade on crop: 320 g/ha; for Effect on crop grade, f: beet: application herbicide amount 320 g/ha
Summary of the method: (§4)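 Greenhouse culture at 25° C. to 30° C. followed sowing of seed in spots on sterilized diluvial soil with a soil cover close to 1.5 cm thick.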

rapeseed [3] = assay: Test Example 4: effect on crop by soil treatment (symbol g); format: in vivo; settings: for g: rapeseed, effect grade on crop: 320 g/ha; for Effect on crop grade, g: rapeseed: application herbicide amount 320 g/ha
Summary of the method: as §4

Lolium multiflorum Lam. = assay: Test Example 5: herbicidal effect by foliage application, plastic box (symbol K); format: in vivo; settings: 320 g/ha, 3 weeks after application
Summary of the method: as §1

Monochoria vaginalis = assay: Test Example 1: herbicidal activity, application before weed generation in submerged conditions (symbol C); format: in vivo; settings: application herbicide amount 320 g/ha
Summary of the method: as §3

Cyperus difformis = assay: Test Example 3: herbicidal effect by foliage application, Wagner pot (symbol E); format: in vivo; settings: application herbicide amount 320 g/ha; for E herbicidal effect grade: Table 24
Summary of the method: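 Plants sown in submerged alluvial soil (water depth 0.1–0.5 cm) in a 25–30 °C greenhouse and grown 14 days. An emulsion of the compound diluted in water to a set herbicide amount was sprayed uniformly on foliage. Effect on each plant scored 3 weeks after application.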

beet [4] = assay: Test Example 5: effect on crop by foliage application, plastic box (symbol f); format: in vivo; settings: 320 g/ha, 3 weeks after application
Summary of the method: as §2

Galium spurium = assay: Test Example 5: herbicidal effect by foliage application, plastic box (symbol Q); format: in vivo; settings: 320 g/ha, 3 weeks after application
Summary of the method: as §1

Compound | G: Setaria viridis, herbicidal effect (criteria 0-5) (Setaria viridis) | e: wheat, effect on crop (criteria 0-5) (wheat) | Herbicidal effect grade, B: Scirpus juncoides (Scirpus juncoides) | N: Amaranthus retroflexus, herbicidal effect grade (Amaranthus retroflexus) | g: rapeseed, effect on crop (criteria 0-5) (rapeseed [1]) | melting point | G: Setaria viridis, herbicidal effect grade (Setaria viridis) | E herbicidal effect grade (Cyperus difformis) | e: wheat, effect on crop grade (wheat) | B (Scirpus juncoides) herbicidal effect grade (Scirpus juncoides) | Herbicidal effect grade, N: Amaranthus retroflexus (Amaranthus retroflexus) | g: rapeseed, effect on crop grade (rapeseed [1]) | L: Apera spica-venti, herbicidal effect grade (Apera spica-venti) | Effect on crop grade, c: corn (corn) | Effect on crop grade, f: beet (beet [2]) | Effect on crop grade, g: rapeseed (rapeseed [3]) | f: beet, effect on crop grade (beet [4]) | K: Lolium multiflorum Lam., herbicidal effect grade (Lolium multiflorum Lam.) | Q: Galium spurium, herbicidal effect grade (Galium spurium) | C (Monochoria vaginalis) herbicidal effect grade (Monochoria vaginalis) | other results
CON=C(CC1CC(O)=C(c2c(C)cc(C)cc2C)C1=O)C(F)(F)F (stereo not drawn) [1-097] | 5 (Herbicidal ratio of 90% or more (almost completely withered)) | 2 (Herbicidal ratio of 20% or higher and lower than 40%) | 0 (Herbicidal ratio of 5% or lower (almost no effect)) | 0 (Herbicidal ratio of 5% or lower (almost no effect)) | 3 (Herbicidal ratio of 40% or higher and lower than 70%) | 115 to 118 °C | – | – | – | – | – | – | – | – | – | – | – | – | – | – | L: Apera spica-venti, herbicidal effect (criteria 0-5) (Apera spica-venti): 4 (Herbicidal ratio of 70% or higher and lower than 90%); c: corn, effect grade on crop (corn): 1 (Herbicidal ratio of 5% or higher and lower than 20%); f: beet, effect grade on crop (beet [2]): 0 (Herbicidal ratio of 5% or lower (almost no effect)); g: rapeseed, effect grade on crop (rapeseed [3]): 3 (Herbicidal ratio of 40% or higher and lower than 70%); K: Lolium multiflorum Lam., herbicidal effect (criteria 0-5) (Lolium multiflorum Lam.): 5 (Herbicidal ratio of 90% or more (almost completely withered)); Herbicidal effect grade, C: Monochoria vaginalis (Monochoria vaginalis): 0 (Herbicidal ratio of 5% or lower (almost no effect))
CCCON=C(C)CC1CC(O)=C(c2c(C)cc(C)cc2C)C1=O (stereo not drawn) [1-123] | 5 (Herbicidal ratio of 90% or more (almost completely withered)) | 5 (Herbicidal ratio of 90% or more (almost completely withered)) | 4 (Herbicidal ratio of 70% or higher and lower than 90%) | 0 (Herbicidal ratio of 5% or lower (almost no effect)) | 5 (Herbicidal ratio of 90% or more (almost completely withered)) | 123 to 126 °C | – | – | – | – | – | – | – | – | – | – | – | – | – | – | herbicidal effect on E, grade 0-5 (Cyperus difformis): 4 (Herbicidal ratio of 70% or higher and lower than 90%); L: Apera spica-venti, herbicidal effect (criteria 0-5) (Apera spica-venti): 5 (Herbicidal ratio of 90% or more (almost completely withered)); c: corn, effect grade on crop (corn): 3 (Herbicidal ratio of 40% or higher and lower than 70%); f: beet, effect grade on crop (beet [2]): 0 (Herbicidal ratio of 5% or lower (almost no effect)); g: rapeseed, effect grade on crop (rapeseed [3]): 3 (Herbicidal ratio of 40% or higher and lower than 70%); f: beet, effect on crop (criteria 0-5) (beet [4]): 0 (Herbicidal ratio of 5% or lower (almost no effect)); K: Lolium multiflorum Lam., herbicidal effect (criteria 0-5) (Lolium multiflorum Lam.): 5 (Herbicidal ratio of 90% or more (almost completely withered)); Q: Galium spurium, herbicidal effect (criteria 0-5) (Galium spurium): 0 (Herbicidal ratio of 5% or lower (almost no effect)); Herbicidal effect grade, C: Monochoria vaginalis (Monochoria vaginalis): 3 (Herbicidal ratio of 40% or higher and lower than 70%)
COCCON=C(CC1CC(O)=C(c2c(C)cc(-n3cc(Cl)cn3)cc2C)C1=O)C(C)C (stereo not drawn) [9-022] | – | – | – | – | – | – | 5 (Herbicidal ratio of 90% or more (almost completely withered)) | 5 (Herbicidal ratio of 90% or more (almost completely withered)) | 0 (Herbicidal ratio of 5% or lower (almost no effect)) | 3 (Herbicidal ratio of 40% or higher and lower than 70%) | 0 (Herbicidal ratio of 5% or lower (almost no effect)) | 0 (Herbicidal ratio of 5% or lower (almost no effect)) | 2 (Herbicidal ratio of 20% or higher and lower than 40%) | 1 (Herbicidal ratio of 5% or higher and lower than 20%) | 0 (Herbicidal ratio of 5% or lower (almost no effect)) | 0 (Herbicidal ratio of 5% or lower (almost no effect)) | 0 (Herbicidal ratio of 5% or lower (almost no effect)) | 2 (Herbicidal ratio of 20% or higher and lower than 40%) | 0 (Herbicidal ratio of 5% or lower (almost no effect)) | 0 (Herbicidal ratio of 5% or lower (almost no effect)) | –
CC#Cc1cc(C)c(C2=C(O)CC(CC(=NOCCOC)C(C)C)C2=O)c(C)c1 (stereo not drawn) [9-023] | – | – | – | – | – | – | 5 (Herbicidal ratio of 90% or more (almost completely withered)) | 5 (Herbicidal ratio of 90% or more (almost completely withered)) | 1 (Herbicidal ratio of 5% or higher and lower than 20%) | 5 (Herbicidal ratio of 90% or more (almost completely withered)) | 5 (Herbicidal ratio of 90% or more (almost completely withered)) | 5 (Herbicidal ratio of 90% or more (almost completely withered)) | 5 (Herbicidal ratio of 90% or more (almost completely withered)) | 3 (Herbicidal ratio of 40% or higher and lower than 70%) | 0 (Herbicidal ratio of 5% or lower (almost no effect)) | 4 (Herbicidal ratio of 70% or higher and lower than 90%) | 0 (Herbicidal ratio of 5% or lower (almost no effect)) | 5 (Herbicidal ratio of 90% or more (almost completely withered)) | 0 (Herbicidal ratio of 5% or lower (almost no effect)) | 4 (Herbicidal ratio of 70% or higher and lower than 90%) | –
CC(CC1CC(O)=C(c2c(C)cc(-c3ccc(Cl)cc3)cc2C)C1=O)=NOCC(F)(F)F (stereo not drawn) [9-024] | – | – | – | – | – | – | 5 (Herbicidal ratio of 90% or more (almost completely withered)) | 5 (Herbicidal ratio of 90% or more (almost completely withered)) | 3 (Herbicidal ratio of 40% or higher and lower than 70%) | 4 (Herbicidal ratio of 70% or higher and lower than 90%) | 3 (Herbicidal ratio of 40% or higher and lower than 70%) | 4 (Herbicidal ratio of 70% or higher and lower than 90%) | 5 (Herbicidal ratio of 90% or more (almost completely withered)) | 0 (Herbicidal ratio of 5% or lower (almost no effect)) | 0 (Herbicidal ratio of 5% or lower (almost no effect)) | 0 (Herbicidal ratio of 5% or lower (almost no effect)) | 0 (Herbicidal ratio of 5% or lower (almost no effect)) | 5 (Herbicidal ratio of 90% or more (almost completely withered)) | 4 (Herbicidal ratio of 70% or higher and lower than 90%) | 2 (Herbicidal ratio of 20% or higher and lower than 40%) | –
